Patent US8450332B2, “LIMK2 inhibitors, compositions comprising them, and methods of their use” (Lexicon Pharmaceuticals, Inc., priority 2008, dated 2013)

Target: T1, LIMK2 (Homo sapiens, UniProt P53671)
T1 construct: His tag (histidine-tagged; pFastBacHT vector); made in house; host or cells: Sf9 insect cells (BAC-to-BAC baculovirus system)
Test: In vitro LIMK2 inhibition assay (33P incorporation into myelin basic protein flash plates)
Type: biochemical
Description: Using the procedures described herein and methods known in the art, the additional compounds listed below in Table 1 were prepared. The LIMK2 IC50 data that is provided below for some of the compounds was determined using the assay described in Example 32.
An in vitro assay used to identify LIMK2 inhibitors was developed. The analytical readout was the incorporation of ^33P from ATP substrate into immobilized myelin basic protein coated flash plates (Perkin Elmer Biosciences), which were counted on a scintillation counter equipped with a plate reader (TopCount, Packard Bioscience, Meriden, Conn.). Using 384 well flat MBP flashplates, total assay volume was 50 μl. The HTS program utilized a Biomek FX for dilution.
For each assay, the ingredients and conditions were as follows: 200 ng of enzyme was incubated in assay buffer (1× assay buffer contains 30 mM HEPES (pH 8.0), 5 mM DTT, and 10 mM MgCl2), 10 μM ATP, 0.2 μCi [gamma-^33P]-ATP and 10 μM of potential inhibitory compound. The reaction was incubated at room temperature for 60 minutes, washed 3 times with 75 μl of stop/wash buffer (1× stop/was buffer contains 50 mM EDTA and 20 mM Tris (pH 7.4)), and then the plates were read on the scintillation counter. Different concentrations of staurosporine (400 nM, 200 nM, 100 nM and 50 nM; purchased from BIOMOL (Plymouth Meeting, Pa.)) were used as controls on each plate.

T1 sequence (P53671 whole entry): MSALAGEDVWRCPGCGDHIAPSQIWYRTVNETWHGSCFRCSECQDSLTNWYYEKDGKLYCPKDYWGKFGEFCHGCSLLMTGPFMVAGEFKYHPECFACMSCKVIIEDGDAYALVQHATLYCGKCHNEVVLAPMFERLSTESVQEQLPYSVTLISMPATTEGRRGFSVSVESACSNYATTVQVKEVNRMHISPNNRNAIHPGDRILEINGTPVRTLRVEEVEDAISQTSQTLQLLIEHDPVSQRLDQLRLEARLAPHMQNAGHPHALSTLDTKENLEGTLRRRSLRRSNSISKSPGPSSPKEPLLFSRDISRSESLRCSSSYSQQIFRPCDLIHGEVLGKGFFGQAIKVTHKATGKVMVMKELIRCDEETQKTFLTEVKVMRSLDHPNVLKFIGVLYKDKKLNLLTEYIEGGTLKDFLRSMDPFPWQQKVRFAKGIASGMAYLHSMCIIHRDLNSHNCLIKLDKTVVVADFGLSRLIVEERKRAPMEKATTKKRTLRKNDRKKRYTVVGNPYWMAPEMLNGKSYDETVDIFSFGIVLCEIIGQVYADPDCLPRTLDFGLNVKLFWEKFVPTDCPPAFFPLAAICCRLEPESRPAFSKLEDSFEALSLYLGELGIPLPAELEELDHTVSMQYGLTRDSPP

Structure (SMILES)	IC50
COC(=O)NCC1(C(=O)Nc2cccc(OC(=O)N(C)C)c2)CCN(c2ncnc3[nH]cc(C)c23)CC1 [3-(4-((methoxycarbonylaminomethyl)-1-(5-methyl-7H-pyrrolo[2,3-d]pyrimidin-4-yl)piperidine-4-carboxamido)phenyl dimethylcarbamate]	< 250 nM
COC(=O)c1nnn(CC2(C(=O)Nc3cccc(OC(=O)N(C)C)c3)CCN(c3ncnc4[nH]cc(C)c34)CC2)c1C(=O)OC [dimethyl 1-((4-(3-(dimethylcarbamoyloxy)phenylcarbamoyl)-1-(5-methyl-7H-pyrrolo[2,3-d]pyrimidin-4-yl)piperidin-4-yl)methyl)-1H-1,2,3-triazole-4,5-dicarboxylate]	< 250 nM
COCCOCC(=O)NCC1(C(=O)Nc2cccc(OC(=O)N(C)C)c2)CCN(c2ncnc3[nH]cc(C)c23)CC1 [3-(4-((2-(2-methoxyethoxy)acetamido)methyl)-1-(5-methyl-7H-pyrrolo[2,3-d]pyrimidin-4-yl)piperidine-4-carboxamido)phenyl dimethylcarbamate]	< 250 nM
Cc1c[nH]c2ncnc(N3CCC(CNC(=O)[C@@H](N)CO)(C(=O)Nc4cccc(OC(=O)N(C)C)c4)CC3)c12 [(S)-3-(4-((2-amino-3-hydroxypropanamido)methyl)-1-(5-methyl-7H-pyrrolo[2,3-d]pyrimidin-4-yl)piperidine-4-carboxamido)phenyl dimethylcarbamate]	< 250 nM
CCN(CC)C(=O)Oc1cccc(NC(=O)C2(CN)CCN(c3ncnc4[nH]cc(C)c34)CC2)c1 [3-(4-(aminomethyl)-1-(5-methyl-7H-pyrrolo[2,3-d]pyrimidin-4-yl)piperidine-4-carboxamido)phenyl diethylcarbamate]	< 250 nM
CNc1nc2ccc(NC(=O)C3(CN)CCN(c4ncnc5[nH]cc(C)c45)CC3)cc2o1 [4-(aminomethyl)-1-(5-methyl-7H-pyrrolo[2,3-d]pyrimidin-4-yl)-N-(2-(methylamino)benzo[d]oxazol-6-yl)piperidine-4-carboxamide]	< 500 nM
Cc1c[nH]c2ncnc(N3CCC(C)(C(=O)Nc4ccc(F)c(Br)c4)CC3)c12 [N-(3-bromo-4-fluorophenyl)-4-methyl-1-(5-methyl-7H-pyrrolo[2,3-d]pyrimidin-4-yl)piperidine-4-carboxamide]	< 250 nM
Cc1c[nH]c2ncnc(N3CCC(CNC(=O)C4(N)CC4)(C(=O)Nc4cccc(OC(=O)N(C)C)c4)CC3)c12 [3-(4-((1-aminocyclopropanecarboxamido)methyl)-1-(5-methyl-7H-pyrrolo[2,3-d]pyrimidin-4-yl)piperidine-4-carboxamido)phenyl dimethylcarbamate]	< 250 nM
Cc1c[nH]c2ncnc(N3CCC(CNC(=O)CN)(C(=O)Nc4cccc(OC(=O)N(C)C)c4)CC3)c12 [3-(4-((2-aminoacetamido)methyl)-1-(5-methyl-7H-pyrrolo[2,3-d]pyrimidin-4-yl)piperidine-4-carboxamido)phenyl dimethylcarbamate]	< 250 nM
Cc1c[nH]c2ncnc(N3CCC(C#N)(C(=O)Nc4cccc(OC(=O)N(C)C)c4)CC3)c12 [3-(4-cyano-1-(5-methyl-7H-pyrrolo[2,3-d]pyrimidin-4-yl)piperidine-4-carboxamido)phenyl dimethylcarbamate]	< 250 nM
Cc1c[nH]c2ncnc(N3CCC(CN)(C(=O)Nc4cccc(Br)c4)CC3)c12 [4-(aminomethyl)-N-(3-bromophenyl)-1-(5-methyl-7H-pyrrolo[2,3-d]pyrimidin-4-yl)piperidine-4-carboxamide]	< 250 nM
Cc1c[nH]c2ncnc(N3CCC(CNS(N)(=O)=O)(C(=O)Nc4cccc(OC(=O)N(C)C)c4)CC3)c12 [3-(1-(5-methyl-7H-pyrrolo[2,3-d]pyrimidin-4-yl)-4-((sulfamoylamino)methyl)piperidine-4-carboxamido)phenyl dimethylcarbamate]	< 250 nM
Cc1c[nH]c2ncnc(N3CCC(C(=O)Nc4cccc(OC(=O)N(C)C)c4)(c4nn[nH]n4)CC3)c12 [3-(1-(5-methyl-7H-pyrrolo[2,3-d]pyrimidin-4-yl)-4-(2H-tetrazol-5-yl)piperidine-4-carboxamido)phenyl dimethylcarbamate]	< 250 nM
Cc1c[nH]c2ncnc(N3CCC(CNC(=O)N4CCOCC4)(C(=O)Nc4cccc(OC(=O)N(C)C)c4)CC3)c12 [3-(1-(5-methyl-7H-pyrrolo[2,3-d]pyrimidin-4-yl)-4-((morpholine-4-carboxamido)methyl)piperidine-4-carboxamido)phenyl dimethylcarbamate]	< 250 nM
C=CCC1(C(=O)Nc2cccc(C(C)(C)C)c2)CCN(c2ncnc3[nH]cc(C)c23)CC1 [4-allyl-N-(3-tert-butylphenyl)-1-(5-methyl-7H-pyrrolo[2,3-d]pyrimidin-4-yl)piperidine-4-carboxamide]	< 250 nM
CC(=O)NCC1(C(=O)Nc2cccc(OC(=O)N(C)C)c2)CCN(c2ncnc3[nH]cc(C)c23)CC1 [3-(4-(acetamidomethyl)-1-(5-methyl-7H-pyrrolo[2,3-d]pyrimidin-4-yl)piperidine-4-carboxamido)phenyl dimethylcarbamate]	< 250 nM
Cc1c[nH]c2ncnc(N3CCC(CN)(C(=O)Nc4cccc(C(=O)N(C)C)c4)CC3)c12 [4-(aminomethyl)-N-(3-(dimethylcarbamoyl)phenyl)-1-(5-methyl-7H-pyrrolo[2,3-d]pyrimidin-4-yl)piperidine-4-carboxamide]	< 250 nM
Cc1c[nH]c2ncnc(N3CCC(CNC(=O)[C@@H](N)Cc4c[nH]cn4)(C(=O)Nc4cccc(OC(=O)N(C)C)c4)CC3)c12 [(S)-3-(4-((2-amino-3-(1H-imidazol-4-yl)propanamido)methyl)-1-(5-methyl-7H-pyrrolo[2,3-d]pyrimidin-4-yl)piperidine-4-carboxamido)phenyl dimethylcarbamate]	< 250 nM
C=CCC1(C(=O)Nc2cccc(OC(=O)N(C)C)c2)CCN(c2ncnc3[nH]cc(C)c23)CC1 [3-(4-allyl-1-(5-methyl-7H-pyrrolo[2,3-d]pyrimidin-4-yl)piperidine-4-carboxamido)phenyl dimethylcarbamate]	< 250 nM
